PMC8286840, “Identifying SARS-CoV-2 antiviral compounds by screening for small molecule inhibitors of Nsp3 papain-like protease” (Biochemical Journal, 2021)
Where a name gives a salt, the structure may show the parent alone. Read-outs that look alike come from different tables or passages of the source. Where a SMILES comes first, the peptide text is derived from it.

How the values were obtained:
[1] = biological target: T1, SARS-CoV-2 PLpro (nsp3 1564–1878) (Severe acute respiratory syndrome coronavirus 2, UniProt P0DTD1); experiment: biochemical; design: FRET-quenched peptide (Pro3) cleavage by PLpro, 10 min pre-incubation, slope over 20 min, normalised to no-compound control; settings: read-out: % of control remaining
[2] = biological target: T1, SARS-CoV-2 PLpro (nsp3 1564–1878); experiment: biochemical; design: FRET-quenched peptide (Pro3) cleavage by PLpro, 10 min pre-incubation, slope over 20 min, normalised to no-compound control; settings: read-out: % of control remaining; remark: listed apart in the source
Description: The plates were organized with columns 3–22 containing the compounds; the remaining columns were used for reaction controls including substrate only and substrate with enzyme but no compound (Figure 3Aii). The PLpro enzyme was pre-incubated with the compounds for 10 min, and then the reaction was initiated by the addition of substrate. […] We incubated the inhibitors with PLpro before the enzymatic reaction so that the slow-binding inhibitors will not be missed out [21]. […] Fluorescence was read on a Spark multimode microplate reader (Tecan) with an excitation wavelength at 330 nm and emission wavelength at 420 nm. […] An amount of 5 µl of the enzyme was pre-incubated with compounds for 10 min before the addition of 15 µl substrate. Fluorescence was monitored at 2 min for 20 min with 3 min intervals giving a total of seven readings.

C=CC(=O)c1ccc2ccccc2c1 [ZM 449829 - 1-(2-Naphthalenyl)-2-propen-1-one]
remaining activity at 1.25 µM ([1]; Well no.=2388, low concentration screen): 105% | remaining activity at 3.75 µM ([2]; Well no.=2388, high concentration screen): 106%

FC(F)c1nc2ccccc2n1-c1nc(N2CCOCC2)nc(N2CCOCC2)n1 [ZSTK474]
remaining activity at 1.25 µM ([1]; Well no.=4623, low concentration screen): 102% | remaining activity at 3.75 µM ([2]; Well no.=4623, high concentration screen): 106%

COc1cc(C(=O)NS(=O)(=O)c2ccccc2C)ccc1Cc1cn(C)c2ccc(NC(=O)OC3CCCC3)cc12 [Zafirlukast]
remaining activity at 1.25 µM ([1]; Well no.=1762, low concentration screen): 99.5% | remaining activity at 1.25 µM ([1]; Well no.=8579, low concentration screen): 102% | remaining activity at 3.75 µM ([2]; Well no.=8579, high concentration screen): 101%

Nc1ccn([C@H]2CC[C@@H](CO)O2)c(=O)n1 [Zalcitabine]
remaining activity at 1.25 µM ([1]; Well no.=7856, low concentration screen): 92.9% | remaining activity at 3.75 µM ([2]; Well no.=7856, high concentration screen): 98.9%

CC(C(=O)O)c1ccc2c(c1)CC(=O)c1ccccc1S2 (stereo not drawn) [Zaltoprofen]
remaining activity at 1.25 µM ([1]; Well no.=4879, low concentration screen): 96.8% | remaining activity at 3.75 µM ([2]; Well no.=4879, high concentration screen): 97.2%

CC(=O)N[C@H]1[C@H]([C@H](O)[C@H](O)CO)OC(C(=O)O)=C[C@@H]1NC(=N)N [Zanamivir]
remaining activity at 1.25 µM ([1]; Well no.=5883, low concentration screen): 103% | remaining activity at 3.75 µM ([2]; Well no.=5883, high concentration screen): 104%

CCCOc1ccccc1-c1nc2[nH]nnc2c(=O)[nH]1 [Zaprinast]
remaining activity at 1.25 µM ([1]; Well no.=1342, low concentration screen): 99.6% | remaining activity at 1.25 µM ([1]; Well no.=2188, low concentration screen): 92% | remaining activity at 3.75 µM ([2]; Well no.=1342, high concentration screen): 101% | remaining activity at 3.75 µM ([2]; Well no.=2188, high concentration screen): 95.6%

COc1cc(-c2ccc(=O)[nH]n2)ccc1OC(F)F [Zardaverine]
remaining activity at 1.25 µM ([1]; Well no.=1438, low concentration screen): 95.5% | remaining activity at 1.25 µM ([1]; Well no.=2190, low concentration screen): 97.5% | remaining activity at 3.75 µM ([2]; Well no.=1438, high concentration screen): 94.9% | remaining activity at 3.75 µM ([2]; Well no.=2190, high concentration screen): 98.2%

O=C(O)[C@H](Cc1ccc(Nc2nccc3ccncc23)cc1)NC1=C(Br)C(=O)C12CCCCC2 [Zaurategrast]
remaining activity at 1.25 µM ([1]; Well no.=7838, low concentration screen): 98.1% | remaining activity at 3.75 µM ([2]; Well no.=7838, high concentration screen): 99.7%

C[C@H]1CCCC(=O)CCC/C=C/c2cc(O)cc(O)c2C(=O)O1 [Zearalenone]
remaining activity at 1.25 µM ([1]; Well no.=3148, low concentration screen): 97.2% | remaining activity at 3.75 µM ([2]; Well no.=3148, high concentration screen): 97.8%

O=c1ncccn1[C@@H]1O[C@H](CO)[C@@H](O)[C@H]1O [Zebularine]
remaining activity at 1.25 µM ([1]; Well no.=7818, low concentration screen): 97% | remaining activity at 3.75 µM ([2]; Well no.=7818, high concentration screen): 96.3%

C/C1=C\CC(C)(C)/C=C/C(=O)/C(C)=C/CC1 [Zerumbone]
remaining activity at 1.25 µM ([1]; Well no.=3549, low concentration screen): 96.6% | remaining activity at 3.75 µM ([2]; Well no.=3549, high concentration screen): 98.6%

COc1nc(C)cnc1NS(=O)(=O)c1cccnc1-c1ccc(-c2nnco2)cc1 [Zibotentan]
remaining activity at 1.25 µM ([1]; Well no.=6318, low concentration screen): 98.5% | remaining activity at 3.75 µM ([2]; Well no.=6318, high concentration screen): 98.2%

CC(c1cc2ccccc2s1)N(O)C(N)=O (stereo not drawn) [Zileuton]
remaining activity at 1.25 µM ([1]; Well no.=1764, low concentration screen): 102% | remaining activity at 3.75 µM ([2]; Well no.=1764, high concentration screen): 100%

CN(C)C/C=C(/c1ccc(Br)cc1)c1cccnc1 [Zimelidine dihydrochloride]
remaining activity at 1.25 µM ([1]; Well no.=1534, low concentration screen): 96.1% | remaining activity at 3.75 µM ([2]; Well no.=1534, high concentration screen): 96%

O=C1Cc2cc(CCN3CCN(c4nsc5ccccc45)CC3)c(Cl)cc2N1 [Ziprasidone (hydrochloride monohydrate)]
remaining activity at 1.25 µM ([1]; Well no.=6563, low concentration screen): 92.6% | remaining activity at 3.75 µM ([2]; Well no.=6563, high concentration screen): 90.8%

O=C1Cc2cc(CCN3CCN(c4nsc5ccccc45)CC3)c(Cl)cc2N1 [Ziprasidone HCl]
remaining activity at 1.25 µM ([1]; Well no.=4859, low concentration screen): 92.1% | remaining activity at 3.75 µM ([2]; Well no.=4859, high concentration screen): 93.7%

C[C@H](CSC(=O)c1ccccc1)C(=O)N1C[C@@H](Sc2ccccc2)C[C@H]1C(=O)O [Zofenopril calcium]
remaining activity at 1.25 µM ([1]; Well no.=5564, low concentration screen): 102% | remaining activity at 3.75 µM ([2]; Well no.=5564, high concentration screen): 103%

O=P(O)(O)C(O)(Cn1ccnc1)P(=O)(O)O [Zoledronic acid]
remaining activity at 1.25 µM ([1]; Well no.=1881, low concentration screen): 100% | remaining activity at 1.25 µM ([1]; Well no.=5578, low concentration screen): 102% | remaining activity at 3.75 µM ([2]; Well no.=1881, high concentration screen): 97.1% | remaining activity at 3.75 µM ([2]; Well no.=5578, high concentration screen): 98.1%

CN(C)CCc1c[nH]c2ccc(C[C@H]3COC(=O)N3)cc12 [Zolmitriptan]
remaining activity at 1.25 µM ([1]; Well no.=1885, low concentration screen): 98% | remaining activity at 1.25 µM ([1]; Well no.=6507, low concentration screen): 98.3% | remaining activity at 3.75 µM ([2]; Well no.=1885, high concentration screen): 97.6% | remaining activity at 3.75 µM ([2]; Well no.=6507, high concentration screen): 98.2%

NS(=O)(=O)Cc1noc2ccccc12 [Zonisamide sodium]
remaining activity at 1.25 µM ([1]; Well no.=1390, low concentration screen): 98.4% | remaining activity at 3.75 µM ([2]; Well no.=1390, high concentration screen): 100%

NS(=O)(=O)Cc1noc2ccccc12 [Zonisamide]
remaining activity at 1.25 µM ([1]; Well no.=1879, low concentration screen): 94.7% | remaining activity at 3.75 µM ([2]; Well no.=1879, high concentration screen): 96.4%

O=C(O)Cc1nn(Cc2nc3cc(C(F)(F)F)ccc3s2)c(=O)c2ccccc12 [Zopolrestat]
remaining activity at 1.25 µM ([1]; Well no.=5825, low concentration screen): 98.5% | remaining activity at 3.75 µM ([2]; Well no.=5825, high concentration screen): 98.9%

CO[C@H]1C[C@@H]2CC[C@@H](C)[C@@](O)(O2)C(=O)C(=O)N2CCCC[C@H]2C(=O)O[C@H]([C@H](C)C[C@@H]2CC[C@H](n3cnnn3)[C@H](OC)C2)CC(=O)[C@H](C)/C=C(\C)[C@@H](O)[C@@H](OC)C(=O)[C@H](C)C[C@H](C)/C=C/C=C/C=C/1C [Zotarolimus]
remaining activity at 1.25 µM ([1]; Well no.=8308, low concentration screen): 90.2% | remaining activity at 3.75 µM ([2]; Well no.=8308, high concentration screen): 91.2%

CCCCC[C@H](O)CC(=O)CCc1ccc(O)c(OC)c1 [[6]-Gingerol]
remaining activity at 1.25 µM ([1]; Well no.=6162, low concentration screen): 96.6% | remaining activity at 3.75 µM ([2]; Well no.=6162, high concentration screen): 99.6%

CC(C)C[C@H](NC(=O)[C@H](Cc1ccccc1)NC(=O)CNC(=O)[C@@H](C)NC(=O)[C@@H](N)Cc1ccc(O)cc1)C(=O)O [[D-Ala2]leucine-enkephalin]
remaining activity at 1.25 µM [1]: 101% | remaining activity at 3.75 µM [2]: 98.6%

CC[C@H](C)[C@H](NC(=O)[C@@H]1CCCN1C(=O)[C@H](Cc1cnc[nH]1)NC(=O)[C@@H](NC(=O)[C@H](Cc1ccc(O)cc1)NC(=O)[C@@H](NC(=O)[C@H](CCCN=C(N)N)NC(=O)CNC)C(C)C)[C@@H](C)CC)C(=O)O [[Sar1, Ile8]-Angiotensin II (TFA)]
remaining activity at 1.25 µM ([1]; Well no.=7588, low concentration screen): 96% | remaining activity at 3.75 µM ([2]; Well no.=7588, high concentration screen): 92%

C[C@H](N)C(=O)O [_-Alanine]
remaining activity at 1.25 µM ([1]; Well no.=7747, low concentration screen): 103% | remaining activity at 3.75 µM ([2]; Well no.=7747, high concentration screen): 107%

C[C@H](NC(=O)[C@@H](N)CCC(=O)O)C(=O)O [_-L-Glutamyl-L-alanine] (H-Glu-Ala-OH)
remaining activity at 1.25 µM ([1]; Well no.=7750, low concentration screen): 105% | remaining activity at 3.75 µM ([2]; Well no.=7750, high concentration screen): 104%

CC1(C)CCC2=C(O1)c1ccccc1C(=O)C2=O [_-Lapachone]
remaining activity at 1.25 µM ([1]; Well no.=6166, low concentration screen): 104% | remaining activity at 3.75 µM ([2]; Well no.=6166, high concentration screen): 79.2%

NC(=O)c1ccc[n+]([C@@H]2O[C@H](COP(=O)([O-])O)[C@@H](O)[C@H]2O)c1 [_-Nicotinamide mononucleotide]
remaining activity at 1.25 µM ([1]; Well no.=7735, low concentration screen): 102% | remaining activity at 3.75 µM ([2]; Well no.=7735, high concentration screen): 105%

Nc1ncnc2c1ncn2[C@@H]1O[C@H](COP(=O)(O)CP(=O)(O)OP(=O)(O)O)[C@@H](O)[C@H]1O [alpha,beta-Methylene adenosine 5'-triphosphate dilithium]
remaining activity at 1.25 µM ([1]; Well no.=932, low concentration screen): 101% | remaining activity at 3.75 µM ([2]; Well no.=932, high concentration screen): 98.2%

NC(N)=N[C@@H](CCC(=O)O)C(=O)O [alpha-Guanidinoglutaric acid]
remaining activity at 1.25 µM ([1]; Well no.=669, low concentration screen): 93.5% | remaining activity at 3.75 µM ([2]; Well no.=669, high concentration screen): 96.1%
